Earlier results, collected in patent publication US9125900B2 (priority 2005, dated 2015).
Where two headings read alike, the source gives them in different places.

Tests used:
5-HT7 receptor = 5-HT7 receptor (Homo sapiens, UniProt P34969)
respiratory neurons [1] = conditions: for morphine-induced suppression of respiratory neuronal activity: anesthetized rats
respiratory neurons [2] = system: respiratory neurons
5-HT4a receptor isoform = 5-HT4a receptor isoform (Homo sapiens, UniProt Q13639)
Sequence of 5-HT4a receptor isoform (Q13639 1-387 isoform Q13639-2): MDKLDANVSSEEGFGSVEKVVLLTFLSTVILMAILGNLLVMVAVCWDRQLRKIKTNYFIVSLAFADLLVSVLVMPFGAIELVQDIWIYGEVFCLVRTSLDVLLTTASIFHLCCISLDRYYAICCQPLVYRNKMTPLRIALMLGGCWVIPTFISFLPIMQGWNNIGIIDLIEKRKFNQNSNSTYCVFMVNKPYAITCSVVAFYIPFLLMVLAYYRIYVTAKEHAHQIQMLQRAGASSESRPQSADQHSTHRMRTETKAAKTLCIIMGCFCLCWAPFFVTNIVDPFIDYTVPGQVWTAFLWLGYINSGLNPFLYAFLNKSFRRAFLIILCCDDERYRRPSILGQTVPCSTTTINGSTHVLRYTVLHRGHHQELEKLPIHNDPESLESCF

Sequence of 5-HT7 receptor (P34969 whole entry): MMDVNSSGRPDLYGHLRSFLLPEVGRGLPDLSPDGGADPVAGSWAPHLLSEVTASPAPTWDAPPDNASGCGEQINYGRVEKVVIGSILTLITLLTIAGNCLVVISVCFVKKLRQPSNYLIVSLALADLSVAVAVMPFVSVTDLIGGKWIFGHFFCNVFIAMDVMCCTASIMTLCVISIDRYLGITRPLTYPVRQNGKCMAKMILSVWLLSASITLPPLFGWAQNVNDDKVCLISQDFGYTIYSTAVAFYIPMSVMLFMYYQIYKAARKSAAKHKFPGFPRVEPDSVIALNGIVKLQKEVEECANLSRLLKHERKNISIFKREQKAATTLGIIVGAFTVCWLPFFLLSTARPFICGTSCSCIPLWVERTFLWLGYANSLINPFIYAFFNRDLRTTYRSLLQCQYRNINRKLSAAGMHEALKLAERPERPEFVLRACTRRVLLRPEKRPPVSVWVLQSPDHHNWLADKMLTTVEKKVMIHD

O=C1CC2(CCCC2)CC(=O)N1CCCCN1CCN(c2ncccn2)CC1 [buspirone]
receptor activity (5-HT7 receptor): no effect on the 5-HT7 receptor | morphine-induced suppression of respiratory neuronal activity (respiratory neurons [1]): reversed the suppression

CCCN(CCC)C1CCc2cccc(O)c2C1 (racemic) [8-OH-DPAT, 8-hydroxy-2-(di-n-propylamino)tetralin]
respiratory frequency or ventilation rate (hypoxic goats): did not increase respiratory frequency or ventilation rate | depressant effects on respiratory neurons (respiratory neurons [1]; 100 μg/kg, rats): no depressant effects on rat respiratory neurons | morphine-induced suppression of respiratory neuronal activity (respiratory neurons [1]): reversed the morphine-induced suppression of neuronal activity | phrenic nerve discharges (respiratory neurons [2]; anesthetized cats, higher doses 50 and 90 μg/kg): suppressed phrenic nerve discharges | phrenic nerve discharges (respiratory neurons [2]; anesthetized cats, lower doses 10-50 μg/kg): increased the frequency of phrenic nerve discharges | pentobarbital- and ketamine-induced suppression of respiratory neurons (respiratory neurons [2]; cats): reverse pentobarbital- and ketamine-induced suppression of respiratory neurons | phrenic nerve discharges (respiratory neurons [2]; cats, 20 μg/kg intravenously): phrenic nerve discharges were decreased

COc1cc(N)c(Cl)cc1C(=O)NC1CN2CCC1CC2.Cl (racemic) [zacopride, 4-amino-N-1-azabicyclo[2.2.2] oct-3-yl-5-chloro-2-methoxybenzamide hydrochloride]
receptor activity (5-HT4a receptor isoform): agonist of the 5-HT4a receptor isoform
